Ten molecules from patent US5637583A, “Aminocyclohexylesters and uses thereof” (University of British Columbia, priority 1994, dated 1997) can be followed below.

In test [1] the test system is conscious rats subject to coronary artery occlusion. Put plainly: Antiarrhythmic efficacy: incidence of cardiac arrhythmias in conscious rats subject to coronary artery occlusion. It is filed as in vivo, rat. Particulars: score 0-9 per Table 2, 30 min after occlusion.
Experimental: Antiarrhythmic efficacy was assessed by investigating the effect of a compound on the incidence of cardiac arrhythmias in conscious rats subject to coronary artery occlusion. Rats weighing 200-300 gms were subjected to preparative surgery and assigned to groups in a random block design. In each case, the animal was anesthetized with halothane during surgical preparation. The left femoral artery was cannulated for measurement of mean arterial blood pressure and withdrawal of blood samples. The left femoral vein was also cannulated for injection of drugs. The thoracic cavity was opened and a polyethylene occluder loosely placed around the left anterior descending coronary artery. The thoracic cavity was then closed. ECG was recorded by insertion of electrodes placed along the anatomical axis of the heart. All cannulae and electrode leads were exteriorized in the mid scapular region. In random and double-blind manner, about 0.5 to 2 hours post-surgery, an infusion of vehicle, or the compound to be tested was given. After 15 minutes infusion, the occluder was pulled so as to produce coronary artery occlusion. ECG, arrhythmias, blood pressure, heart rate and mortality were monitored for 30 minutes after occlusion. Arrhythmias were recorded as ventricular tachycardia (VT) and ventricular fibrillation (VF) and scored according to Curtis, M. J. and Walker, M. J. A., Cardiovasc.
VPB=ventricular premature beats
VT=ventricular tachycardia
VF=ventricular fibrillation
Occlusion is associated with increases in R-wave height and "S-T" segment elevation; and an occluded zone (measured after death by cardiogreen dye perfusion) in the range of 25%-50% of total left-ventricular weight.
Test [2] concerns the target T1, cardiac sodium channel (Rattus norvegicus, UniProt P15389). Put plainly: ECG parameters in anesthetized rats (RSh, PR, QRS; cardiac sodium channel blockade). The conditions noted are these: i.v. bolus; for ED25 PR (dose required to produce a 25% increase): P-R interval; for ED25 QRS (dose required to produce a 25% increase): QRS interval. It is filed as in vivo. The protocol: Rats weighing 200-250 gms were used in this example. Animals were anesthetized with 60 mg/kg pentobarbitone i.p. The carotid artery and jugular vein were cannulated for measurement of blood pressure and drug injection, respectively. ECG was recorded by insertion of electrodes placed along the anatomical axis of the heart. All compounds were given as bolus injections.
Various ECG parameters were measured. The most sensitive of these for measuring sodium channel blockade is RSh (J. Pharmacology Methods 27:51-58 (1992)). Table 4 describes the results of the tests as ED25 (micromoles/kg) which are the doses required to produce a 25% increase in the parameter measured (ne=not estimated). The increases in P-R interval, QRS interval and RSh indicate cardiac sodium channel blockade while the increase in Q-T interval indicates ancillary cardiac potassium channel blockade which is the property of a type 1 a antiarrhythmic.

The target in test [3] is T1, cardiac sodium channel. Put plainly: Whole cell voltage clamp tests, single isolated adult rat cardiac cells. The class given is cell-based. As to the method:
In order to directly measure cardiac sodium channel blockade, standard whole cell voltage clamp tests were carried out using single isolated adult rat cardiac cells. Results in the form of EC50 values, which are micromolar concentrations required to produce a 50% reduction in sodium current, are presented in Table 6.

Test [4] deals with cardiac potassium channel. The experiment in a line: ECG parameters in anesthetized rats (QT; ancillary cardiac potassium channel blockade). The class given is in vivo, rat. The conditions noted are these: i.v. bolus, Q-T interval.
Experimental: Various ECG parameters were measured. […] The increases in P-R interval, QRS interval and RSh indicate cardiac sodium channel blockade while the increase in Q-T interval indicates ancillary cardiac potassium channel blockade which is the property of a type 1 a antiarrhythmic.
For another test, the system named is potassium channels. The experiment in a line: Electrical stimulation of left ventricle in rats (ERP; ancillary blockade of potassium channels). It is filed as in vivo, rat. The conditions noted are these: infusion rate for 25% increase from control; anesthetized rats.
Test [5] deals with T1, cardiac sodium channel. Put plainly: Electrical stimulation of left ventricle in rats (iT, VFT; cardiac sodium channel blockade). The class given is in vivo. Particulars: infusion rate for 25% increase from control; anesthetized rats. As to the method:
Rats were prepared according to the preceding procedure. Two silver stimulating electrodes were inserted through the chest wall and implanted in the left ventricle. Square wave stimulation was used to determine threshold current for capture, ventricular fibrillation threshold current, and effective refractory period (Howard, P. G. and Walker, M. J. A., Proc. West. Pharmacol. Soc. 33:123-127 (1990)). Table 5 contains ED25 values for these indices of cardiac sodium channel blockade, where the ED25 is the infusion rate in micromoles/kg/minute of compound required to elicit a 25% increase from control. The increases in refractoriness indicate ancillary blockade of potassium channels. The threshold current for capture is represented by "iT". The fibrillation threshold current is represented by "VFT". The effective refracting period is represented by "ERP".

Test [6] deals with hypogastric nerve vas deferens. Put plainly: Nerve conduction blockade in vitro, hypogastric nerve vas deferens. The conditions noted are these: read-out: concentration at which the twitch response from electrical stimulation is reduced to 50% of control value. The protocol:
In order to establish the potency of the compounds to block nerve conduction, two in vitro assays were used. The first was the phrenic nerve diaphragm of the rat. The second was the hypogastric nerve vas deferens. Nerve blockade in these preparations is indicative of local anesthetic activity. Compounds were administered to the bath solution in increasing concentrations while the preparations were being stimulated with regular electrical impulses.

The next test relates to phrenic nerve diaphragm. Put plainly: Nerve conduction blockade in vitro, phrenic nerve diaphragm. Particulars: Rattus norvegicus, read-out: concentration at which the twitch response from electrical stimulation is reduced to 50% of control value.
[7] abbreviates: whole cell voltage clamp, isolated adult rat cardiac cells, read-out: EC50 (concentration required to produce a 50% reduction in sodium current).
[8] abbreviates: dose 8 micromoles/kg/min infusion.
Where [9] appears, read: dose 4 micromoles/kg/min infusion.

Structures are written as SMILES. Structures can show the parent of a compound that is named as a salt. Where two headings read alike, the source gives them in different places.

T1 sequence (P15389 whole entry): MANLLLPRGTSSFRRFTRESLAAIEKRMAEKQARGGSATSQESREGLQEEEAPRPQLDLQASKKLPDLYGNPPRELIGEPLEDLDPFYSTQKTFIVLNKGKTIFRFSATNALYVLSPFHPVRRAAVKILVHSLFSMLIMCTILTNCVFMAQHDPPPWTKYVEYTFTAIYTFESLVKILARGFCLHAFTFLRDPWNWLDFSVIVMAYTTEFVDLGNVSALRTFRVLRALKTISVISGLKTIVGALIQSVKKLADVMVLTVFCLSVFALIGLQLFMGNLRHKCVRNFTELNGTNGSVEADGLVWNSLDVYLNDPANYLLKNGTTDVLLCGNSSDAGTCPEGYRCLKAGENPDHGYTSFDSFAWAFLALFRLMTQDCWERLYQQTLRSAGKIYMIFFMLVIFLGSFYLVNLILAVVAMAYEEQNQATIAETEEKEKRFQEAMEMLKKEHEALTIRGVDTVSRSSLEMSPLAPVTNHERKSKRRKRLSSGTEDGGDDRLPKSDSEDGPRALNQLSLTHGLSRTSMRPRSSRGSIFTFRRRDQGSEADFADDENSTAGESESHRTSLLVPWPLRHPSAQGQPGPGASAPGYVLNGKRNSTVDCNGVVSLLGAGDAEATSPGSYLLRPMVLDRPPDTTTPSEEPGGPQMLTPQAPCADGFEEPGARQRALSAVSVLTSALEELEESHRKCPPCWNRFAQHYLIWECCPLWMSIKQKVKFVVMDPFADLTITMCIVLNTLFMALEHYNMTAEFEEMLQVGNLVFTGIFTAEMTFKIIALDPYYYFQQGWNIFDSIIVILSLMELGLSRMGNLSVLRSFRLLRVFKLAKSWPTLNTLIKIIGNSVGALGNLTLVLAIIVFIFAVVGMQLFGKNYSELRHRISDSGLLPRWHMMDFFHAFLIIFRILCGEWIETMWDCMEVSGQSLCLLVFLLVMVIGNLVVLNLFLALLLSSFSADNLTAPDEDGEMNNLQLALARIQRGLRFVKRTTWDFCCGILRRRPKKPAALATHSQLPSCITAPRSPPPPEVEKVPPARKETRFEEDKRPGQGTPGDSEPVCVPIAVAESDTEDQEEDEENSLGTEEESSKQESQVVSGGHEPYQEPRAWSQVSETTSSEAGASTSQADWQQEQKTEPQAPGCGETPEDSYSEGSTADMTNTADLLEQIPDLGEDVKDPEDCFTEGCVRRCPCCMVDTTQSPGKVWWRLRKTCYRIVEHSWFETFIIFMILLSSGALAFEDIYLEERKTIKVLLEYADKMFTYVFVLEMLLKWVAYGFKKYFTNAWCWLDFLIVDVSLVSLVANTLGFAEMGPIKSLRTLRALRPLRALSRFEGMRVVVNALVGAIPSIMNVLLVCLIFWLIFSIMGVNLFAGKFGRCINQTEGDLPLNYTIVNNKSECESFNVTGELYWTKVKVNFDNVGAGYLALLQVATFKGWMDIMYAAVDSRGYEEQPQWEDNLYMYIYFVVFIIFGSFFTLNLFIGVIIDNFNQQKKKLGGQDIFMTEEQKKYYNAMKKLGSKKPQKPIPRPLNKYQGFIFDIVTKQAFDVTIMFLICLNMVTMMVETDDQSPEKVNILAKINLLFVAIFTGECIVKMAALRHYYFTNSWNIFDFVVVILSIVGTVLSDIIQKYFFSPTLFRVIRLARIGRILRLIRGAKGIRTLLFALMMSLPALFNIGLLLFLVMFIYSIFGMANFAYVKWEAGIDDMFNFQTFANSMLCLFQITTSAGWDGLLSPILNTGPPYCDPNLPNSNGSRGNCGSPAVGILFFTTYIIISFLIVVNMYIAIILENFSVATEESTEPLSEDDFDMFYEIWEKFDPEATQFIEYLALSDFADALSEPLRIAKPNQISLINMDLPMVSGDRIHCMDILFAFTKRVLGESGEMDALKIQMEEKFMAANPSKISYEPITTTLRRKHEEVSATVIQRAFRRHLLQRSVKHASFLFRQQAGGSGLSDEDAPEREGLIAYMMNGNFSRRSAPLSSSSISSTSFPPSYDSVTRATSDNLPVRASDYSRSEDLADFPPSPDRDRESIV
Experimental for phrenic nerve diaphragm: In order to establish the potency of the compounds to block nerve conduction, two in vitro assays were used. The first was the phrenic nerve diaphragm of the rat. […] Nerve blockade in these preparations is indicative of local anesthetic activity. Compounds were administered to the bath solution in increasing concentrations while the preparations were being stimulated with regular electrical impulses.
Text for potassium channels: Two silver stimulating electrodes were inserted through the chest wall and implanted in the left ventricle. Square wave stimulation was used to determine threshold current for capture, ventricular fibrillation threshold current, and effective refractory period (Howard, P. G. and Walker, M. J. A., Proc. West. Pharmacol. Soc. 33:123-127 (1990)). […] The threshold current for capture is represented by "iT". The fibrillation threshold current is represented by "VFT". The effective refracting period is represented by "ERP".

Consider `O=C(COc1ccc(Cl)c(Cl)c1)O[C@@H]1CCCC[C@H]1N1CCOCC1` (relative stereo) [Compound #4, (±)-trans-[2-(4-morpholinyl)cyclohexyl](3,4-dichlorophenoxy)acetate monohydrochloride], for which the “AS (arrhythmia score)” value in test [1] (dose 5 micromoles/kg/min infusion) amounted to 3.6. Besides, on cardiac sodium channel [2], the “ED25 PR (dose required to produce a 25% increase)” value was determined as 44 µmol/kg and the “ED25 RSh (dose required to produce a 25% increase)” value was 10 µmol/kg. Further, at cardiac sodium channel [3] (setting [7]), the EC50 was > 500 µM.
Turning to `O=C(CC1CCCCC1)O[C@@H]1CCCC[C@H]1N1CCCC1` (relative stereo) [Compound #7, (±)-trans-[2-(1-pyrrolidinyl)cyclohexyl](cyclohexyl)acetate monohydrochloride], the “ED25 QT (dose required to produce a 25% increase)” value in test [4] amounted to 41 µmol/kg. Further, on cardiac sodium channel [2], the “ED25 PR (dose required to produce a 25% increase)” value came out at 84 µmol/kg and the “ED25 RSh (dose required to produce a 25% increase)” value amounted to 6 µmol/kg.
For the molecule `O=C(Cc1cccc2ccccc12)O[C@@H]1CCCC[C@H]1N1CCOCC1` (relative stereo) [Compound #8, (±)-trans-[2-(4-morpholinyl)cyclohexyl]naphthyl-1-acetate monohydrochloride], the “ED25 ERP (effective refractory period)” value with potassium channels stood at 4 µmol/kg/min. In test [1] (dose 2 micromoles/kg/min infusion), the “AS (arrhythmia score)” value is given as 3. Also, the “ED25 QT (dose required to produce a 25% increase)” value in test [4] is 57 µmol/kg. Also, at cardiac sodium channel [2], the “ED25 PR (dose required to produce a 25% increase)” value amounted to 20 µmol/kg, the “ED25 QRS (dose required to produce a 25% increase)” value turned out to be 42 µmol/kg and the “ED25 RSh (dose required to produce a 25% increase)” value came out at 11 µmol/kg. At cardiac sodium channel [3] (setting [7]), the EC50 came to 80 µM. Also, on cardiac sodium channel [5], the “ED25 VFT (fibrillation threshold current)” value (“ED25 VFT” below) is 2 µmol/kg/min and the “ED25 iT (threshold current for capture)” value was found to be 5 µmol/kg/min.
For `Cl.O=C(Cc1cccc2sccc12)O[C@@H]1CCCC[C@H]1N1CCOCC1` (racemic) [Compound #16, (±)-trans-[2-(4-morpholinyl)cyclohexyl]benzo[b]thiophene-4-acetate monohydrochloride], in the test with potassium channels, the “ED25 ERP (effective refractory period)” value turned out to be 5 µmol/kg/min. In addition, the “AS (arrhythmia score)” value in test [1] (setting [8]) was 0.3. In test [4], the “ED25 QT (dose required to produce a 25% increase)” value is 33 µmol/kg. Further, on cardiac sodium channel [2], the “ED25 PR (dose required to produce a 25% increase)” value is 230 µmol/kg, the “ED25 QRS (dose required to produce a 25% increase)” value is 690 µmol/kg and the “ED25 RSh (dose required to produce a 25% increase)” value was 23 µmol/kg. The EC50 at cardiac sodium channel [3] (setting [7]) is 225 µM. Moreover, on cardiac sodium channel [5], the “ED25 VFT” value came to 2 µmol/kg/min and the “ED25 iT (threshold current for capture)” value was 15 µmol/kg/min.
Consider `Cl.O=C(O[C@@H]1CCCC[C@H]1N1CCOCC1)c1cccc2ccccc12` (racemic) [Compound #15, (±)-trans-[2-(4-morpholinyl)cyclohexyl]-1-naphthoate monohydrochloride], for which the “ED25 ERP (effective refractory period)” value in the test on potassium channels came to 20 µmol/kg/min. Besides, in test [1] (dose 12 micromoles/kg/min infusion), the “AS (arrhythmia score)” value is 2. Moreover, at cardiac sodium channel [2], the “ED25 PR (dose required to produce a 25% increase)” value is 340 µmol/kg, the “ED25 QRS (dose required to produce a 25% increase)” value came to 90 µmol/kg and the “ED25 RSh (dose required to produce a 25% increase)” value was found to be 80 µmol/kg. Further, on cardiac sodium channel [5], the “ED25 VFT” value amounted to 18 µmol/kg/min and the “ED25 iT (threshold current for capture)” value came out at 33 µmol/kg/min.
`O=C(Cc1ccccc1)O[C@@H]1CCCC[C@H]1N1CCOCC1` (relative stereo) [Compound #10, (±)-trans-[2-(4-morpholinyl)cyclohexyl]phenylacetate monohydrochloride]: the “ED25 ERP (effective refractory period)” value in the test with potassium channels came out at 8 µmol/kg/min. In addition, the “AS (arrhythmia score)” value in test [1] (dose 10 micromoles/kg/min infusion) is 2.2. In test [4], the “ED25 QT (dose required to produce a 25% increase)” value was 25 µmol/kg. Further, on cardiac sodium channel [2], the “ED25 RSh (dose required to produce a 25% increase)” value was found to be 16 µmol/kg. Besides, the EC50 on cardiac sodium channel [3] is > 300 µM. Besides, at cardiac sodium channel [5], the “ED25 VFT” value worked out at 1 µmol/kg/min and the “ED25 iT (threshold current for capture)” value stood at 15 µmol/kg/min.
For `O=C(Cc1ccc([N+](=O)[O-])cc1)O[C@@H]1CCCC[C@H]1N1CCOCC1` (relative stereo) [Compound #12, (+5-trans-[2-(4-morpholinyl)cyclohexyl](4-nitrophenyl)acetatemonohydrochloride], the “ED25 ERP (effective refractory period)” value in the test on potassium channels is 6 µmol/kg/min. For the same molecule, the “AS (arrhythmia score)” value in test [1] (setting [8]) turned out to be 3. Moreover, the “ED25 QT (dose required to produce a 25% increase)” value in test [4] stood at 44 µmol/kg. Also, on cardiac sodium channel [2], the “ED25 PR (dose required to produce a 25% increase)” value is 64 µmol/kg, the “ED25 QRS (dose required to produce a 25% increase)” value came out at 82 µmol/kg and the “ED25 RSh (dose required to produce a 25% increase)” value amounted to 17 µmol/kg. Also, the EC50 on cardiac sodium channel [3] (setting [7]) was > 300 µM. Also, on cardiac sodium channel [5], the “ED25 VFT” value came out at 5 µmol/kg/min and the “ED25 iT (threshold current for capture)” value came out at 4 µmol/kg/min.
Consider `O=C(COc1ccc(Cl)c(Cl)c1)O[C@@H]1CCCC[C@H]1N1CC2CCC(CC2)C1` (relative stereo) [Compound #3, (±)-trans-{2-[N-(3-azabicyclo[3.2.2]nonyl)]cyclohexyl}(3,4-dichlorophenoxy)acetate monohydrochloride], for which the IC50 in test [6] was determined as 300 µM. Besides, the “ED25 QT (dose required to produce a 25% increase)” value in test [4] was 160 µmol/kg. Also, at cardiac sodium channel [2], the “ED25 PR (dose required to produce a 25% increase)” value amounted to 140 µmol/kg, the “ED25 QRS (dose required to produce a 25% increase)” value came out at 130 µmol/kg and the “ED25 RSh (dose required to produce a 25% increase)” value is 140 µmol/kg. Also, the IC50 in the test with phrenic nerve diaphragm worked out at 200 µM. For the same molecule, the EC50 on cardiac sodium channel [3] was > 150 µM.
On to `O=C(Cc1ccc2ccccc2c1)O[C@@H]1CCCC[C@H]1N1CCOCC1` (relative stereo) [Compound #9, (±)-trans-[2-(4-morpholinyl)cyclohexyl]naphthyl-2-acetate monohydrochloride], for which the “ED25 ERP (effective refractory period)” value in the test with potassium channels is 8 µmol/kg/min. For the same molecule, in test [1] (setting [9]), the “AS (arrhythmia score)” value was determined as 1.3. Besides, the “ED25 QT (dose required to produce a 25% increase)” value in test [4] was 20 µmol/kg. On cardiac sodium channel [2], the “ED25 RSh (dose required to produce a 25% increase)” value is 13 µmol/kg. In addition, the EC50 at cardiac sodium channel [3] (setting [7]) is > 100 µM. For the same molecule, at cardiac sodium channel [5], the “ED25 VFT” value came to 7 µmol/kg/min and the “ED25 iT (threshold current for capture)” value was 34 µmol/kg/min.
With `O=C(COc1ccc(Cl)c(Cl)c1)O[C@@H]1CCCC[C@H]1N1CCCCCC1` (relative stereo) [Compound #5, (±)-trans-[2-(1-hexahydroazepinyl)cyclohexyl](3,4-dichlorophenoxy)acetate monohydrochloride], the IC50 in test [6] is 100 µM. In addition, in the test with potassium channels, the “ED25 ERP (effective refractory period)” value was 4 µmol/kg/min. In addition, the “AS (arrhythmia score)” value in test [1] (setting [9]) turned out to be 3. Further, the “ED25 QT (dose required to produce a 25% increase)” value in test [4] was 45 µmol/kg. Moreover, on cardiac sodium channel [2], the “ED25 PR (dose required to produce a 25% increase)” value is 43 µmol/kg, the “ED25 QRS (dose required to produce a 25% increase)” value is 66 µmol/kg and the “ED25 RSh (dose required to produce a 25% increase)” value was 36 µmol/kg. Also, the IC50 in the test with phrenic nerve diaphragm amounted to 180 µM. Further, at cardiac sodium channel [5], the “ED25 VFT” value was determined as 4 µmol/kg/min and the “ED25 iT (threshold current for capture)” value was 5 µmol/kg/min.
